Test results from US4314028A, “Fermentation process for producing tallysomycin compounds” (priority 1980, dated 1982).

Legend:
[1] = system: Lymphocytic leukemia P388; assay: animal or person; type: in vivo, BDF1 mice; settings: copper-chelated form unless otherwise stated; for Antitumor activity P388 (ED125): ip, once daily 9 days, dose giving T/C survival of 125%; for Antitumor therapeutic index P388: single dose LD50/ED125
Source text: (§1) The antitumor activity of the tallysomycin derivatives was examined in four experimental tumor systems in mice. Lymphocytic leukemia P388 and Lewis lung carcinoma were implanted intraperitoneally into BDF1 mice of either sex at an inoculum size of 3×10^5 and 5×10^5 cells per mouse, respectively. Sarcoma 180 ascites tumor was inoculated intraperitoneally into male dd-strain mice with […] per mouse. Melanotic melanoma B16 was implanted subcutaneously into BDF1 mice with 5×10^5 cells per mouse. Twenty-four hours after the implantation of tumor cells, graded doses of test compounds were administered to mice intraperitoneally in an injection volume of 0.2 ml. per 10 grams of body weight. Test compounds were given once daily for 9 days (qd 1→9 schedule) except for the mice inoculated with Lewis lung carcinoma which were treated for 11 days (qd 1→11). Death or survival of the treated and non-treated (control) animals was recorded daily during the observation period of 45 days after the implantation of tumor cells, and the median survival time was calculated for each of the test (T) and control (C) groups. […] The actual dose giving a T/C of 125% was estimated by linear regression analysis and defined as the effective dose 125 or ED125. The effective dose 150 (ED150) was employed for the evaluation of antitumor effect against Sarcoma 180. In the B16 melanoma experiment the tumor size was measured on day 16 after tumor inoculation, and the dose giving 50% inhibition of tumor growth (ID50) was calculated from regression lines.
(§2) The antitumor therapeutic index was calculated for each derivative from the ratio of toxicity and antitumor activity.

Mycobacterium 607 = assay: MIC, two-fold agar dilution method; type: cell-based; settings: nutrient agar
Method: (§3) The minimum inhibitory concentrations (MIC) of the semibiosynthetic tallysomycin derivatives of the present invention were determined against fungi and gram-positive, gram-negative and acid-fast bacteria by the two-fold agar dilution method. Nutrient agar was used for bacteria and Sabouraud agar for fungi. The results are shown in the table below comparatively with tallysomycin A and B.

Escherichia coli NIHJ = assay: MIC, two-fold agar dilution method; type: cell-based; settings: nutrient agar
Method: as §3

[2] = system: Aspergillus fumigatus IAM 2593; assay: MIC, two-fold agar dilution method; type: cell-based; settings: Sabouraud agar
Method: as §3

Proteus mirabilis A9554 = assay: MIC, two-fold agar dilution method; type: cell-based; settings: nutrient agar
Method: as §3

[3] = system: Staphylococcus aureus Smith; assay: MIC, two-fold agar dilution method; type: cell-based; settings: nutrient agar
Method: as §3

Sarcina lutea PCI1001 = assay: MIC, two-fold agar dilution method; type: cell-based; settings: nutrient agar
Method: as §3

[4] = system: Candida albicans IAM 4888; assay: MIC, two-fold agar dilution method; type: cell-based; settings: Sabouraud agar
Method: as §3

[5] = system: Bacillus subtilis PCI 219; assay: MIC, two-fold agar dilution method; type: cell-based; settings: nutrient agar
Method: as §3

[6] = system: lysogenic bacterium E. coli W1709 (λ); assay: Prophage induction of lysogenic bacterium (ILB activity); type: cell-based; settings: t/c ratio of plaque counts greater than 3.0
Method: The activity of prophage induction of lysogenic bacterium E. coli W1709 (λ) was determined according to the method disclosed by Lein et al. in Nature 196: 783-784 (1962). The plaque count was made on the agar plate containing test compound (t) and control plate (c). A t/c ratio of the plaque counts of greater than 3.0 was defined to be a significant level and lysogenic induction activity (ILB activity) was expressed by the minimum inducible concentration of the test compound.

[7] = system: Mycobacterium smegmatis strain M6-3; assay: Relative antibacterial potency, paper-disc agar diffusion method; type: cell-based; settings: relative to tallysomycin A standard=1000 mcg/mg
Method: The relative antibacterial potencies (tallysomycin A standard=1000 mcg/mg) of the tallysomycin derivatives were determined by the paper-disc agar diffusion method using Mycobacterium smegmatis strain M6-3 as the assay organism.

Melanotic melanoma B16 = assay: Antitumor activity in mice, melanotic melanoma B16; type: in vivo, BDF1 mice; settings: copper-chelated form unless otherwise stated; for Antitumor activity B16 (ID50): ip, once daily 9 days, 50% inhibition of tumor growth, day 16, 23040 min; for Antitumor therapeutic index B16: single dose LD50/ID50
Source text: as §1, §2

Sarcoma 180 = assay: animal or person; type: in vivo, dd-strain mice; settings: copper-chelated form unless otherwise stated; for Antitumor activity S180 (ED150): ip, once daily 9 days, effective dose 150, survival; for Antitumor therapeutic index S180: single dose LD50/ED150
Source text: as §1, §2

[8] = Acute toxicity, single dose LD50; type: in vivo, dd mice; settings: ip, 30 days observation, copper-chelated form unless otherwise stated
Method: Graded doses of test compounds were administered intraperitoneally to groups of dd mice. The injection was given one time only or once daily for 9 consecutive days. Death or survival of the animals was recorded for 30 days after the last dose of test compound to calculate the single or multiple median lethal dose (LD50).

Lewis lung carcinoma = assay: Antitumor activity in mice, Lewis lung carcinoma; type: in vivo, BDF1 mice; settings: copper-chelated form unless otherwise stated; for Antitumor activity Lewis lung (ED125): ip, once daily 11 days, dose giving T/C survival of 125%; for Antitumor therapeutic index Lewis Lung: single dose LD50/ED125
Source text: as §1, §2

## Cc1c(N)nc(C(CC(N)=O)NCC(N)C(N)=O)nc1C(=O)NC(C(=O)NC(C)C(O)CC(=O)NC(C(=O)NC(OC1OC(C)C(N)C(O)C1O)C(O)c1nc(-c2nc(C(=O)NCCN)cs2)cs1)C(C)O)C(OC1OC(CO)C(O)C(O)C1OC1OC(CO)C(O)C(OC(N)=O)C1O)c1c[nH]cn1 (stereo not drawn) [Tallysomycin S3b]
[1]
  Antitumor activity P388 (ED125): 0.32 mg/kg/day
  Antitumor therapeutic index P388: 59
Mycobacterium 607
  minimum inhibitory concentration (MIC): 0.05
Escherichia coli NIHJ
  minimum inhibitory concentration (MIC): 0.1
[2]
  minimum inhibitory concentration (MIC): 0.8
Proteus mirabilis A9554
  minimum inhibitory concentration (MIC): 0.2
[3]
  minimum inhibitory concentration (MIC): 0.8
Sarcina lutea PCI1001
  minimum inhibitory concentration (MIC): 1.6
[4]
  minimum inhibitory concentration (MIC): 12.5
[5]
  minimum inhibitory concentration (MIC): 0.013
[6]
  ILB activity (minimum inducible concentration): 0.31 µg/mL
[7]
  Antibacterial potency: 725 μ/mg
Melanotic melanoma B16
  Antitumor activity B16 (ID50): 0.20 mg/kg/day
  Antitumor therapeutic index B16: 95
Sarcoma 180
  Antitumor activity S180 (ED150): 0.06 mg/kg/day
  Antitumor therapeutic index S180: 317
[8]
  LD50 single dose: 19 mg/kg/day
Lewis lung carcinoma
  Antitumor activity Lewis lung (ED125): 0.26 mg/kg/day
  Antitumor therapeutic index Lewis Lung: 73

## Cc1c(N)nc(C(CC(N)=O)NCC(N)C(N)=O)nc1C(=O)NC(C(=O)NC(C)C(O)CC(=O)NC(C(=O)NC(OC1OC(C)C(N)C(O)C1O)C(O)c1nc(-c2nc(C(=O)NCCCC(N)CC(=O)NCCCNCCO)cs2)cs1)C(C)O)C(OC1OC(CO)C(O)C(O)C1OC1OC(CO)C(O)C(OC(N)=O)C1O)c1c[nH]cn1 (stereo not drawn) [Tallysomycin S6a]
[1]
  Antitumor activity P388 (ED125): 0.70 mg/kg/day
  Antitumor therapeutic index P388: 21
Mycobacterium 607
  minimum inhibitory concentration (MIC): 0.4
Escherichia coli NIHJ
  minimum inhibitory concentration (MIC): 0.4
[2]
  minimum inhibitory concentration (MIC): 0.2
Proteus mirabilis A9554
  minimum inhibitory concentration (MIC): 1.6
[3]
  minimum inhibitory concentration (MIC): 0.8
Sarcina lutea PCI1001
  minimum inhibitory concentration (MIC): 1.6
[4]
  minimum inhibitory concentration (MIC): 6.3
[5]
  minimum inhibitory concentration (MIC): 0.03
[6]
  ILB activity (minimum inducible concentration): 0.02 µg/mL
[7]
  Antibacterial potency: 460 μ/mg
Melanotic melanoma B16
  Antitumor activity B16 (ID50): 0.12 mg/kg/day
  Antitumor therapeutic index B16: 125
Sarcoma 180
  Antitumor activity S180 (ED150): 0.09 mg/kg/day
  Antitumor therapeutic index S180: 167
[8]
  LD50 single dose: 15 mg/kg/day
Lewis lung carcinoma
  Antitumor activity Lewis lung (ED125): 0.47 mg/kg/day
  Antitumor therapeutic index Lewis Lung: 32

## Cc1c(N)nc(C(CC(N)=O)NCC(N)C(N)=O)nc1C(=O)NC(C(=O)NC(C)C(O)CC(=O)NC(C(=O)NC(OC1OC(C)C(N)C(O)C1O)C(O)c1nc(-c2nc(C(=O)NCCCNCCO)cs2)cs1)C(C)O)C(OC1OC(CO)C(O)C(O)C1OC1OC(CO)C(O)C(OC(N)=O)C1O)c1c[nH]cn1 (stereo not drawn) [Tallysomycin S6b]
[1]
  Antitumor activity P388 (ED125): 2.2 mg/kg/day
  Antitumor therapeutic index P388: 14
Mycobacterium 607
  minimum inhibitory concentration (MIC): 0.2
Escherichia coli NIHJ
  minimum inhibitory concentration (MIC): 0.4
[2]
  minimum inhibitory concentration (MIC): 0.8
Proteus mirabilis A9554
  minimum inhibitory concentration (MIC): 3.1
[3]
  minimum inhibitory concentration (MIC): 6.3
Sarcina lutea PCI1001
  minimum inhibitory concentration (MIC): 12.5
[4]
  minimum inhibitory concentration (MIC): 25
[5]
  minimum inhibitory concentration (MIC): 0.02
[6]
  ILB activity (minimum inducible concentration): 0.08 µg/mL
[7]
  Antibacterial potency: 340 μ/mg
Melanotic melanoma B16
  Antitumor activity B16 (ID50): 0.22 mg/kg/day
  Antitumor therapeutic index B16: 136
Sarcoma 180
  Antitumor activity S180 (ED150): 0.08 mg/kg/day
  Antitumor therapeutic index S180: 375
[8]
  LD50 single dose: 30 mg/kg/day
Lewis lung carcinoma
  Antitumor activity Lewis lung (ED125): 0.17 mg/kg/day
  Antitumor therapeutic index Lewis Lung: 176
